Measured values: ChEMBL document CHEMBL1135365, “Mixed lineage kinase activity of indolocarbazole analogues” (Bioorg Med Chem Lett, 2002)

Columns and labels:
[1] = target: Mitogen-activated protein kinase kinase kinase 10 (Homo sapiens, UniProt Q02779); test: Inhibition of Mixed lineage kinase 2(MLK2)
[2] = target: Mitogen-activated protein kinase kinase kinase 9 (Homo sapiens, UniProt P80192); test: Inhibition of Mixed lineage kinase 1 (MLK1)
Protein kinase C (PKC) = test: Inhibition of protein kinase C (PKC) from rat brain homogenate
[3] = target: Mitogen-activated protein kinase kinase kinase 11 (Homo sapiens, UniProt Q16584); test: Inhibition of Mixed lineage kinase 3 (MLK3)
Chain of Mitogen-activated protein kinase kinase kinase 11 (Q16584 whole entry): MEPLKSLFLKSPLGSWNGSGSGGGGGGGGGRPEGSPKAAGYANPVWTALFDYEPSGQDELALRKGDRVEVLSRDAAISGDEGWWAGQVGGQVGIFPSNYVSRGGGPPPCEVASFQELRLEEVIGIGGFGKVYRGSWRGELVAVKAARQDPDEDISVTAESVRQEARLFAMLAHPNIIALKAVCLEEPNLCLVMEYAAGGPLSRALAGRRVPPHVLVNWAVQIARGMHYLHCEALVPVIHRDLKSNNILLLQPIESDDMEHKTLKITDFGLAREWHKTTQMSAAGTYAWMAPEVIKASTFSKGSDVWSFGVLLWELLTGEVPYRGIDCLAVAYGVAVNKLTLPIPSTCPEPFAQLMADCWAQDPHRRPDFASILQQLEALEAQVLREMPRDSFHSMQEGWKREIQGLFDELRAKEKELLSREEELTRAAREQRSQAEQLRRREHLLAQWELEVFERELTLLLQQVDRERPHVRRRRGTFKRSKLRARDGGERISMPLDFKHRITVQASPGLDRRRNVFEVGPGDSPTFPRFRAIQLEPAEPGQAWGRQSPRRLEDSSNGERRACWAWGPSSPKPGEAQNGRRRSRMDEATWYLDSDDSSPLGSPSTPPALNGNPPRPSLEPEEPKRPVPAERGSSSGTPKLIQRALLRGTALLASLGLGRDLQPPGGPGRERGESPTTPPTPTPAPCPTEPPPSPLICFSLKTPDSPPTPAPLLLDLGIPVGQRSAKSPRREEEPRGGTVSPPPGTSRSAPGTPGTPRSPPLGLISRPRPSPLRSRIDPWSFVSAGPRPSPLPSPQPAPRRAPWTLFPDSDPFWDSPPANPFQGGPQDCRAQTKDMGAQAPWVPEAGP

[4] = target: High affinity nerve growth factor receptor (Homo sapiens, UniProt P04629); test: Inhibition of NGF high affinity receptor tyrosine kinase TrkA
Chain of High affinity nerve growth factor receptor (P04629 whole entry): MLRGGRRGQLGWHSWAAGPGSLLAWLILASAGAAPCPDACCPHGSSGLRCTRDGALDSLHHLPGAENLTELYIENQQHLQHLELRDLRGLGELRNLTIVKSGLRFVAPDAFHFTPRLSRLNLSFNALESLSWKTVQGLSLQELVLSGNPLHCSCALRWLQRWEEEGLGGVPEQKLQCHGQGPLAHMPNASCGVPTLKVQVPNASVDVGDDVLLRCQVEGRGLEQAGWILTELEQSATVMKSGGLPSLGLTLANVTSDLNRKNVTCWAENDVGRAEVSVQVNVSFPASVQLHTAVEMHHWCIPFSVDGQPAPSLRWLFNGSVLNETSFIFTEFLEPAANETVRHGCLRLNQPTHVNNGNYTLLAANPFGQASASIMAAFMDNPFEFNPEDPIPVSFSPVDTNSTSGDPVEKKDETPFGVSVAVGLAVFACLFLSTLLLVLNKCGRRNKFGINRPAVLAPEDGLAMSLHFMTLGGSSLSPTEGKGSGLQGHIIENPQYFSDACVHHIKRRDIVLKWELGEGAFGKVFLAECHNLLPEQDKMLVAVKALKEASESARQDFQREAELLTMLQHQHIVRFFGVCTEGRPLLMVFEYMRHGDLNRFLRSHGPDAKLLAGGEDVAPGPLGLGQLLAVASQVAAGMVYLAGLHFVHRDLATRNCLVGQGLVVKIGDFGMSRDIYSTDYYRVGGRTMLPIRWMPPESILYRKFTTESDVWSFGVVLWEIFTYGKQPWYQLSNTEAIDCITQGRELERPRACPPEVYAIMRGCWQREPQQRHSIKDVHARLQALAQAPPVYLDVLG

Chain of Mitogen-activated protein kinase kinase kinase 10 (Q02779 whole entry): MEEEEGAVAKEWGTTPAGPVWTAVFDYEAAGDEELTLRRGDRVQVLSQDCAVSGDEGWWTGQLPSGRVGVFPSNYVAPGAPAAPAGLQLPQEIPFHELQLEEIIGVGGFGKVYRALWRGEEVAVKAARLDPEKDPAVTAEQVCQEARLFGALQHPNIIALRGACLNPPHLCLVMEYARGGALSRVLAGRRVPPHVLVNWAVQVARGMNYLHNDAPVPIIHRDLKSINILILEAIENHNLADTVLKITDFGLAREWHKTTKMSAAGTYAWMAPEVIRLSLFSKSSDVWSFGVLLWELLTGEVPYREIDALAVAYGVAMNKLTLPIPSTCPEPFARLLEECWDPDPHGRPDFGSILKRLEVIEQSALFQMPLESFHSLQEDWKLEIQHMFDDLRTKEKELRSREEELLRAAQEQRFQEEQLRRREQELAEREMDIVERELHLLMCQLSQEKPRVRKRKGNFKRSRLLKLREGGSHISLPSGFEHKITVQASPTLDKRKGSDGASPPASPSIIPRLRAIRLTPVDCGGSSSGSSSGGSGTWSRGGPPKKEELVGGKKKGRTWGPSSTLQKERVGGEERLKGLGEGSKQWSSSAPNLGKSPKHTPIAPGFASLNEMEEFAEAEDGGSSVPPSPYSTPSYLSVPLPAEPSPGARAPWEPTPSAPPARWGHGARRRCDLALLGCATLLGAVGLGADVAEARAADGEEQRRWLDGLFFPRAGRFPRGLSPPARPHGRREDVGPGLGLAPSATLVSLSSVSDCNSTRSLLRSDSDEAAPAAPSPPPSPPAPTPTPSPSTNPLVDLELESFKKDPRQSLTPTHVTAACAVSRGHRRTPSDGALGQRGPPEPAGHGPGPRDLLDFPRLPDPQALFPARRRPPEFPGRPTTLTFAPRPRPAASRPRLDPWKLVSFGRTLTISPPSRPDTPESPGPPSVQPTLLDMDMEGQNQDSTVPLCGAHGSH
Chain of Mitogen-activated protein kinase kinase kinase 9 (P80192 whole entry): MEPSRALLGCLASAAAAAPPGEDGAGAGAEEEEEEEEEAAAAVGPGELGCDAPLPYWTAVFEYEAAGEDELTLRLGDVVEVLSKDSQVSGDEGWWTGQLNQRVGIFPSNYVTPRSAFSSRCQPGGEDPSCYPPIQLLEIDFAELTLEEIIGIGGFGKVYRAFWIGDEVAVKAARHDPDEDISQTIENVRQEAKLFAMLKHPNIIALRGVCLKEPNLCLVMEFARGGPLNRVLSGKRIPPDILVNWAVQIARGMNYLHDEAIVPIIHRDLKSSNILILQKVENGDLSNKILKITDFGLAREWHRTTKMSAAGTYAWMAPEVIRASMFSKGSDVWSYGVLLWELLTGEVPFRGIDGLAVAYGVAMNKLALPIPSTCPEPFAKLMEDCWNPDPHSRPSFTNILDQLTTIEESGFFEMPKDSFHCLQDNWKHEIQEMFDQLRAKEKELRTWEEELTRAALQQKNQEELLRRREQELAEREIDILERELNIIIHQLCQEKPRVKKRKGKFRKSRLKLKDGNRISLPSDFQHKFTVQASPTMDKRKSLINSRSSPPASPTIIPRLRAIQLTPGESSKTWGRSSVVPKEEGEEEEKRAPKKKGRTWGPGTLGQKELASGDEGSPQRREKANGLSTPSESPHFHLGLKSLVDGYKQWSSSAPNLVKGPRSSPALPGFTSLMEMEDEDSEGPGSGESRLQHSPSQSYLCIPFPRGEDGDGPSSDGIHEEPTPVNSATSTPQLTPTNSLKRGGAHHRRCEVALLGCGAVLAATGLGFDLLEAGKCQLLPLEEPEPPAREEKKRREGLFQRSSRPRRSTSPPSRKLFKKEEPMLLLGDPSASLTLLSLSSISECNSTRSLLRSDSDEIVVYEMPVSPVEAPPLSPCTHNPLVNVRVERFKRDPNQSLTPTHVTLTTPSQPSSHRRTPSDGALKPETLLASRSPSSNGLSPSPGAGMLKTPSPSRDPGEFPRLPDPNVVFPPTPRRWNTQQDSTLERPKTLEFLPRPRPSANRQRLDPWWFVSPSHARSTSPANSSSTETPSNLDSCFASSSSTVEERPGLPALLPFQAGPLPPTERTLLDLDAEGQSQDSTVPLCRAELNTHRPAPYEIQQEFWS

Work on `CCOCc1ccc2c(c1)c1c3c(c4c5cc(COCC)ccc5n5c4c1n2[C@H]1C[C@](O)(C(=O)OC)[C@]5(C)O1)CNC3=O` yielded an IC50 [1] of 20 nM, an IC50 [2] of 19 nM and an IC50 (Protein kinase C (PKC)) of 2600 nM. The IC50 [3] was 11 nM and the IC50 [4] was 210 nM.
`C=CCSCc1ccc2c(c1)c1c3c(c4c5cc(CSCC=C)ccc5n5c4c1n2[C@H]1C[C@](O)(C(=O)OC)[C@]5(C)O1)CNC3=O` gave an IC50 [2] of 162 nM, an IC50 (Protein kinase C (PKC)) greater than 10000 nM and an IC50 [3] of 94 nM. For the same compound, the IC50 [4] was greater than 1000 nM.
With `CCSCc1ccc2c(c1)c1c3c(c4c5ccccc5n5c4c1n2[C@@]1(C)O[C@@H]5C[C@]1(O)C(=O)OC)C(=O)NC3` the IC50 [1] was 28 nM, the IC50 [2] was 28 nM and the IC50 (Protein kinase C (PKC)) was 400 nM. The IC50 [3] was 21 nM and the IC50 [4] was 61 nM.
`COCc1ccc2c(c1)c1c3c(c4c5cc(COC)ccc5n5c4c1n2[C@H]1C[C@](O)(C(=O)OC)[C@]5(C)O1)CNC3=O` was tested, and the IC50 [1] was 16 nM, the IC50 [2] was 16 nM and the IC50 (Protein kinase C (PKC)) was 450 nM. The IC50 [3] was 11 nM and the IC50 [4] was 270 nM.
`CCSCc1ccc2c(c1)c1c3c(c4c5cc(CSCC)ccc5n5c4c1n2[C@H]1C[C@](O)(C(=O)OC)[C@]5(C)O1)CNC3=O` [CEP-1347] gave an IC50 [1] of 51 nM, an IC50 [2] of 38 nM and an IC50 (Protein kinase C (PKC)) greater than 10000 nM. The IC50 [3] was 23.1 nM and the IC50 [4] was greater than 10000 nM.
Compound `COC(=O)[C@@]1(O)C[C@H]2O[C@]1(C)n1c3ccc(CO)cc3c3c4c(c5c6cc(CO)ccc6n2c5c31)C(=O)NC4` has an IC50 [2] of 15 nM, an IC50 (Protein kinase C (PKC)) of 3 nM and an IC50 [3] of 11 nM.
Work on `CCCSCc1ccc2c(c1)c1c3c(c4c5cc(CSCCC)ccc5n5c4c1n2[C@H]1C[C@](O)(C(=O)OC)[C@]5(C)O1)CNC3=O` yielded an IC50 [2] of 90 nM, an IC50 (Protein kinase C (PKC)) greater than 10000 nM and an IC50 [3] of 56 nM. The IC50 [4] was greater than 10000 nM.
With `COC(=O)[C@@]1(O)C[C@H]2O[C@]1(C)n1c3ccc(CSCCN(C)C)cc3c3c4c(c5c6cc(CSCCN(C)C)ccc6n2c5c31)C(=O)NC4` the IC50 [2] was 360 nM, the IC50 (Protein kinase C (PKC)) was 1600 nM and the IC50 [3] was 123 nM. It also gave an IC50 [4] greater than 1000 nM.
`CCCCSCc1ccc2c(c1)c1c3c(c4c5cc(CSCCCC)ccc5n5c4c1n2[C@H]1C[C@](O)(C(=O)OC)[C@]5(C)O1)CNC3=O` was tested, and the IC50 [1] was 627 nM, the IC50 [2] was 303 nM and the IC50 (Protein kinase C (PKC)) was greater than 7600 nM. The IC50 [3] was 143 nM and the IC50 [4] was greater than 1000 nM.
For `CCSCc1ccc2c(c1)c1c3c(c4c5ccccc5n5c4c1n2[C@H]1C[C@](O)(C(=O)OC)[C@]5(C)O1)CNC3=O`, the IC50 [1] was 140 nM, the IC50 [2] was 43 nM and the IC50 (Protein kinase C (PKC)) was 222 nM. It also gave an IC50 [3] of 44 nM and an IC50 [4] greater than 1000 nM.
With `COC(=O)[C@@]1(O)C[C@H]2O[C@]1(C)n1c3ccc(CSC(C)C)cc3c3c4c(c5c6cc(CSC(C)C)ccc6n2c5c31)C(=O)NC4` the IC50 [1] was 89 nM, the IC50 [2] was 45 nM and the IC50 (Protein kinase C (PKC)) was 980 nM. The IC50 [3] was 31 nM and the IC50 [4] was greater than 10000 nM.
